This assay concerns Bacillus subtillis. The assay can be described thus: microorganisms counting in inoculated fish matrix (fish model). The settings on record: D14, 25° C., positive control at 0.3%, average of two determinations. As to the method:
Fish matrix was made of fish and water (50/50), without preservatives. The matrix was homogenized in a blade mixer grinder and then sterilized at 121° C. for 20 minutes, prior the tests.
Blends were added at 0.5 % into the matrix. Matrices without preservatives (0.5 % of NaCl 0.9%) and matrices with conventional chemical preservatives (0.3% of sodium lactate or potassium nitrite, separately) were used as negative and positive control, respectively.
Each matrix type was portioned into sterile flasks and inoculated with 3 Log CFU/g of different microorganisms, separately. Each flask corresponds to one sample at a given date of analysis.
The inoculated matrices were incubated at 25° C.
The counting of the microorganisms was determined in specific agar medium.

In the case of `O=N[O-].[K+]` [Potassium nitrite], the “Bacillus subtillis spores (Bacillus subtillis totaux - Bacillus subtillis vegetative cells)” value was 2.39 Log CFU/g and the “Bacillus subtillis totaux (vegetative cells + spores)” value is given as 2.60 Log CFU/g.
Regarding `CC(O)C(=O)[O-].[Na+]` (stereo not shown) [Sodium lactate], the “Bacillus subtillis spores (Bacillus subtillis totaux - Bacillus subtillis vegetative cells)” value was determined as 2.35 Log CFU/g and the “Bacillus subtillis totaux (vegetative cells + spores)” value was 2.90 Log CFU/g.
